According to ChEMBL document CHEMBL1123898, “Antitumor imidazotetrazines. 14. Synthesis and antitumor activity of 6- and 8-substituted imidazo[5,1-d]-1,2,3,5-tetrazinones and 8-substituted pyrazolo[5,1-d]-1,2,3,5-tetrazinones” (1987):

How the values were obtained:
Assay type in all cases: functional
[1] = Antitumor activity was assessed against TLX5 tumors in CBA/CA mouse by inoculation of 2 x 10e5 tumor cells through sc route and mean death of animals (treated/control) was reported at 40 mg/kg dose; details: route subcutaneous
L1210 [2] = experiment: Antitumor activity was assessed against L1210 tumors in B6D2F1 mouse by inoculation of 10e5 tumor cells through iv route and mean death of animals (treated/control) was reported at 40 mg/kg po dose
[3] = Antitumor activity was assessed against TLX5 tumors in CBA/CA mouse by inoculation of 2 x 10e5 tumor cells through sc route and number of survivors was reported at 20 mg/kg ip dose; 3/5; details: route subcutaneous
[4] = Antitumor activity was assessed against TLX5 tumors in CBA/CA mouse by inoculation of 2 x 10e5 tumor cells through sc route and mean death of animals (treated/control) was reported at 80 mg/kg dose; details: route subcutaneous
[5] = Antitumor activity was assessed against TLX5 tumors in CBA/CA mouse by inoculation of 2 x 10e5 tumor cells through sc route and mean death of animals (treated/control) was reported at 20 mg/kg dose; details: route subcutaneous
[6] = Antitumor activity was assessed against TLX5 tumors in CBA/CA mouse by inoculation of 2 x 10e5 tumor cells through sc route and number of survivors was reported at 40 mg/kg ip dose; 3/5; details: route subcutaneous
L1210 [7] = experiment: Antitumor activity was assessed against L1210 tumors in B6D2F1 mouse by inoculation of 10e5 tumor cells through iv route and mean death of animals (treated/control) was reported at 10 mg/kg po dose
L1210 [8] = experiment: Antitumor activity was assessed against L1210 tumors in B6D2F1 mouse by inoculation of 10e5 tumor cells through iv route and mean death of animals (treated/control) was reported at 20 mg/kg po dose
L1210 [9] = experiment: Antitumor activity was assessed against L1210 tumors in B6D2F1 mouse by inoculation of 10e5 tumor cells through iv route and number of Survivors to duration was reported at 40 mg/kg po dose; 7/7
L1210 [10] = experiment: Antitumor activity was assessed against L1210 tumors in B6D2F1 mouse by inoculation of 10e5 tumor cells through intravenous route and mean death of animals (treated/control) was reported at 100 mg/kg peroral dose; details: route oral
L1210 [11] = experiment: Antitumor activity was assessed against L1210 tumors in B6D2F1 mouse by inoculation of 10e5 tumor cells through intravenous route and mean death of animals (treated/control) was reported at 50 mg/kg peroral dose; details: route oral
L1210 [12] = experiment: Antitumor activity was assessed against L1210 tumors in B6D2F1 mouse by inoculation of 10e5 tumor cells through intravenous route and mean death of animals (treated/control) was reported at 200 mg/kg peroral dose; details: route oral
[13] = Antitumor activity was assessed against TLX5 tumors in CBA/CA mouse by inoculation of 2 x 10e5 tumor cells through sc route and number of Survivors to duration was reported at 20 mg/kg ip dose; 5/5; details: route subcutaneous
L1210 [14] = experiment: Antitumor activity was assessed against L1210 tumors in B6D2F1 mouse by inoculation of 10e5 tumor cells through iv route and number of Survivors to duration was reported at 20 mg/kg peroral dose; 6/7; details: route oral
L1210 [15] = experiment: Antitumor activity was assessed against L1210 tumors in B6D2F1 mouse by inoculation of 10e5 tumor cells through iv route and mean death of animals (treated/control) was reported at 2.5 mg/kg peroral dose; details: route oral
[16] = Antitumor activity was assessed against TLX5 tumors in CBA/CA mouse by inoculation of 2 x 10e5 tumor cells through sc route and mean death of animals (treated/control) was reported at 5 mg/kg dose; details: route subcutaneous
L1210 [17] = experiment: Antitumor activity was assessed against L1210 tumors in B6D2F1 mouse by inoculation of 10e5 tumor cells through iv route and mean death of animals (treated/control) was reported at 20 mg/kg peroral dose; details: route oral
L1210 [18] = experiment: Antitumor activity was assessed against L1210 tumors in B6D2F1 mouse by inoculation of 10e5 tumor cells through iv route and mean death of animals (treated/control) was reported at 5 mg/kg peroral dose; details: route oral
L1210 [19] = experiment: Antitumor activity was assessed against L1210 tumors in B6D2F1 mouse by inoculation of 10e5 tumor cells through iv route and number of Survivors to duration was reported at 10 mg/kg peroral dose; 1/7; details: route oral
[20] = Antitumor activity was assessed against TLX5 tumors in CBA/CA mouse by inoculation of 2 x 10e5 tumor cells through sc route and mean death of animals (treated/control) was reported at 10 mg/kg dose; details: route subcutaneous
L1210 [21] = experiment: Antitumor activity was assessed against L1210 tumors in B6D2F1 mouse by inoculation of 10e5 tumor cells through iv route and mean death of animals (treated/control) was reported at 10 mg/kg peroral dose; details: route oral
L1210 [22] = experiment: Antitumor activity was assessed against L1210 tumors in B6D2F1 mouse by inoculation of 10e5 tumor cells through iv route and mean death of animals (treated/control) was reported at 160 mg/kg po dose
L1210 [23] = experiment: Antitumor activity was assessed against L1210 tumors in B6D2F1 mouse by inoculation of 10e5 tumor cells through iv route and mean death of animals (treated/control) was reported at 80 mg/kg po dose
[24] = Antitumor activity was assessed against TLX5 tumors in CBA/CA mouse by inoculation of 2 x 10e5 tumor cells through sc route and mean death of animals (treated/control) was reported at 160 mg/kg dose; details: route subcutaneous
[25] = Antitumor activity was assessed against TLX5 tumors in CBA/CA mouse by inoculation of 2 x 10e5 tumor cells through sc route and number of survivors to duration was reported at 40 mg/kg ip dose; 2/5; details: route subcutaneous
[26] = Antitumor activity was assessed against TLX5 tumors in CBA/CA mouse by inoculation of 2 x 10e5 tumor cells through sc route and mean death of animals (treated/control) was reported at 320 mg/kg dose; details: route subcutaneous
[27] = Antitumor activity was assessed against TLX5 tumors in CBA/CA mouse by inoculation of 2 x 10e5 tumor cells through sc route and number of survivors to duration was reported at 80 mg/kg ip dose; 5/5; details: route subcutaneous

In the case of `CN(C)S(=O)(=O)c1ncn2c(=O)n(CCCl)nnc12`, the T/C [1] is reported as >381%, the T/C (L1210 [2]) is reported as >750% and the Survivors [3] is reported as 3. For the same compound, the T/C [4] was 68%, the T/C [5] was >385% and the Survivors [6] was 3. It also gave a T/C (L1210 [7]) of 152%, a T/C (L1210 [8]) of 222% and a Survivors (L1210 [9]) of 7.

In the case of `CN(C(=O)c1ncn2c(=O)n(CCCl)nnc12)c1ccccc1`, the T/C (L1210 [10]) is reported as 100%, the T/C (L1210 [11]) is reported as 100% and the T/C (L1210 [12]) is reported as 100%.

Compound `O=c1n(CCCl)nnc2c([N+](=O)[O-])cnn12` has a T/C (L1210 [10]) of 100%, a T/C (L1210 [11]) of 101% and a T/C (L1210 [12]) of 101%.

`NS(=O)(=O)c1ncn2c(=O)n(CCCl)nnc12` gave a Survivors [13] of 5, a T/C [1] of 119% and a Survivors (L1210 [14]) of 6. For the same compound, the T/C (L1210 [15]) was 136%, the T/C [16] was 121% and the T/C [5] was >476%. The T/C (L1210 [17]) was >605%, the T/C (L1210 [18]) was 207% and the Survivors (L1210 [19]) was 1. For the same compound, the T/C [20] was 160% and the T/C (L1210 [21]) was >376%.

`CCCCc1nc(C(N)=O)c2nnn(CCCl)c(=O)n12` showed a T/C (L1210 [2]) of 100%, a T/C (L1210 [22]) of 147% and a T/C (L1210 [23]) of 113%.

For `Cc1nc(C(N)=O)c2nnn(CCCl)c(=O)n12`, the T/C [1] was >343%, the T/C [24] was 80% and the T/C (L1210 [2]) was 180%. The T/C [4] was >550%, the Survivors [25] was 2 and the T/C [5] was 176%. The T/C [26] was 66%, the Survivors [27] was 5 and the T/C (L1210 [7]) was 128%. The T/C (L1210 [22]) was 267% and the T/C (L1210 [23]) was 248%.

Work on `O=c1n(CCCl)nnc2c(-c3ccccc3)ncn12` yielded a T/C (L1210 [10]) of 100%, a T/C (L1210 [11]) of 100% and a T/C (L1210 [12]) of 100%.
